From patent US8383816B2, “Aryl-quinolyl compounds and their use” (Cancer Research Technology Limited, priority 2008, dated 2013) come the findings set out here.

Where “and” joins values, the source holds several entries; their conditions need not be identical. Identical values can stand only once. A value given as a limit tells only on which side of the number the result lay.

One test addresses B-RAF (Homo sapiens, UniProt P15056, V600E). Nature of the test: DELFIA Kinase Assay. The format is biochemical. The conditions noted are these: 100 μM ATP. As to the method:
Biological Methods—DELFIA Kinase Assay
Compounds were assessed by a kinase assay performed according to the following protocol.
DELFIA Kinase Buffer (DKB):
DKB1 (DKB with B-RAF and MEK Protein):
Combine 4950 μL of DKB and 50 μL of 2.5 mg/ml GST-MEK stock (to give […] of MEK per 40 μL). Then add 22.5 μL of B-RAF to give ˜0.2 μL of B-RAF per 40 μL.
DKB2 (DKB with MEK Protein):
Combine 4950 μL of DKB and 50 μL of 2.5 mg/ml GST-MEK stock (to give 1 mg of MEK per 40 μL). Use 500 μL of this for the blow out (BO) and the empty vector (EV) control.
100 mM stock, dilute to 500 μM to give 100 μM final concentration in assay.
Inhibitors (Test Compounds):
Phospho-MEK½ CST #9121S diluted 1:1000 in DELFIA assay buffer (AB). Preincubate antibody in the AB for 30 minutes at room temperature prior to use.
Anti-rabbit-Eur labelled secondary Perkin Elmer #AD0105 diluted 1:1000 in DELFIA assay buffer (AB). Preincubate antibody in the AB for 30 minutes at room temperature prior to use. (Primary and secondary antibodies were incubated together.)
1. Preblock wells with 5% milk in TBS for 1 hour.
2. Wash wells with 3× with 200 μL TBS.
3. Plate out 40 μL of DKB1 for all inhibitors (test compounds), DMSO control, and optionally other control compounds.
4. Plate out 40 μL of DKB2 for BO and EV wells.
5. Add inhibitors (test compounds) at 0.5 μL per well according to desired plate layout.
6. Add 0.5 μL DMSO to vehicle control wells.
7. Add 2 μL of B-RAF to BO and EV wells.
8. Pre-incubate with inhibitors (test compounds) for 10 minutes at room temperature with shaking.
9. Add 10 μL of 500 μM ATP stock, in DKB, to give 100 μM assay concentration.
10. Seal plates with TopSeal and incubate at room temperature with shaking for 45 minutes.
11. Wash plates 3× with 200 μL 0.1% Tween20/Water to terminate reaction.
12. Add 50 μL per well of antibody mix and incubate for 1 hour at room temperature with shaking.
13. Wash plates 3× with 200 μL 0.1% Tween20/Water.
14. Add 100 μL DELFIA enhancement solution per well, cover in foil, and incubate at room temperature for 30 minutes with shaking.
15. Read on Victor using Europium protocol.
(§1) Values for the blank (Empty Vector) are subtracted from all values. The DMSO controls are set as 100% activity and assay points (the response) are calculated as a percentage of the DMSO control. Data are plotted using Graphpad Prism software and a non-linear regression line is calculated using a variable slope sigmoidal dose-response equation (Y=Bottom+(Top−Bottom)/(1+10^((LogEC50−X)*HillSlope)) where X is the logarithm of concentration. Y is the response). The IC50 generated by this procedure is the concentration of the drug that produces a percentage control fluorescence value midway between the saturation, and zero-effect plateaus. Three independent assays are usually performed and the mean IC50 is reported.

The next test concerns WM266.4 melanoma cells. Nature of the test: SRB Cell Proliferation Assay (SRB GI50). The format is cell-based. The conditions noted are these: Homo sapiens, WM 266-4, 144 h, 6 days growth. As to the method: Biological Methods—SRB Cell Proliferation Assay (SRB GI50)
Cultures of WM266.4 melanoma cells are routinely cultured in DMEM/10% foetal bovine serum, at 37° C., in 5% CO2 water saturated atmosphere. Cultures are maintained in exponential growth phase by sub-culturing before having become confluent (3-5 day intervals). Single cell suspensions are prepared by harvesting an 80 cm^2 tissue culture flask with 5 mL commercial trypsin EDTA. After 5 minutes, the detached cells are mixed with 5 mL fully complemented culture medium and centrifugally pelleted (1000 rpm for 7 minutes). After aspirating the supernatant, the cell pellet is re-suspended in 10 mL fresh medium and the cells fully disaggregated by drawing the whole volume up/down 5 times through a 19-gauge needle. The concentration of the cells is determined using a haemocytometer (1/10 dilution). A suitable volume to give at least a 2-fold excess for the number of tests being conducted, typically 100-200 mL, is prepared by diluting the cell suspension to 10,000/mL, and 100 μL/well dispensed into 96 well plates using a programmable 8-channel peristaltic pump, giving 1000 cells/well, leaving column 12 blank. The plates are returned to the incubator for 24 hours to allow the cells to re-attach.
The compounds being tested are prepared at 20 mM in dimethylsulphoxide. Aliquots (200 μL) are diluted into 20 mL culture medium giving 200 μM, and 10 serial dilutions of 3× performed by transferring 5 mL to 10 mL. Aliquots (100 μL) of each dilution are added to the wells, using an 8-channel pipettor, thus performing a final further 2× dilution, and giving doses ranging from 100 μM to 0.005 μM. Column 11 receives plain culture medium only. Each compound is tested in quadruplicate, each replicate being the average of four wells, and two plates per compound.
After a further 6 days growth, the plates are emptied, and the cells are fixed in 10% trichloroacteic acid for 10 minutes on ice. After thorough rinsing in running tap water, the plates are dried, and stained by adding 50 μL of a solution of 0.1% sulphorhodamine-B in 1% acetic acid, for 10 minutes at room temperature. The stain is poured out and the plates thoroughly rinsed under a stream of 1% acetic acid, thus removing unbound stain, and dried. The bound stain is taken into solution by addition of 150 μL Tris buffer pH 8, followed by 10 minutes on a plate-shaker (approximately 500 rpm). The absorbance at 540 nm in each well (being proportional to the number of cells present) is determined using a plate reader.
After averaging the results in rows A-D and E-H, the blank value (row 12) is subtracted, and results expressed as percentage of the untreated value (row 11). […] The GI50 generated by this procedure is the concentration of the drug that produces a percentage control A540 midway between the saturation, and zero-effect plateaus.

The next test has as its system pERK. Nature of the test: Cell Based Phospho-ERK Assay. The conditions noted are these: 6 h, cells incubated with test compound for 6 hours. As to the method:
Biological Methods—Cell Based Phosho-ERK Assay
Compounds were assessed using a cell-based assay which was performed according to the following protocol.
Plate out 16,000 cells/well in 99 μL medium in a 96-well plate.
1. Add 1 μL inhibitor to the cells […].
2. Incubate the cells with test compound for 6 hours at 37° C.
3. Aspirate off the solution from all of the wells.
4. Fixate the cells with 100 μL 4% formaldehyde/0.25% Triton X-100 PBS per well.
5. Incubate the plate for 1 hour at 4° C.
6. Aspirate off the fixing solution and add 300 μL TBS per well.
7. Leave the plate overnight at 4° C.
1. Wash the plate 2× with 200 μL PBS per well.
2. Block with 100 μL 5% dried milk in TBS.
3. Incubate the plate for 20 minutes at 37° C.
4. Wash the plate 2× with 0.1% tween/H2O.
5. Add 50 μL of 3 μg/mL primary antibody pERK (Sigma M8159), diluted in 5% milk powder/TBS, to each well.
6. Incubate the plate for 2 hours at 37° C.
7. Wash the plate 3× with 0.1% tween/H2O.
8. Add 50 μL of 0.45 μg/mL secondary Europium-labelled anti-mouse antibody (Perkin Elmer) to each well.
9. Incubate the plate for 1 hour at 37° C.
10. Wash the plate 3× with 0.1% tween/H2O.
11. Add 100 μL enhancement solution (Perkin Elmer) to each well.
12. Leave the plate for approximately 10 minutes at room temperature before gently shaking the plate.
13. Read Europium Time Resolved Fluorescence in Victor2.
14. Wash the plate 2× with 0.1% tween/H2O.
15. Measure the protein concentration with BCA (Sigma) by adding 200 μL of solution per well.
16. Incubate the plate for 30 minutes at 37° C.
17. Read absorbance levels at 570 nm in a plate reader.
Note that Europium counts are normalised for protein levels by dividing counts by absorbance.
as §1, with “(no cells)” for “(Empty Vector)”

Sequence of B-RAF (P15056 whole entry V600E): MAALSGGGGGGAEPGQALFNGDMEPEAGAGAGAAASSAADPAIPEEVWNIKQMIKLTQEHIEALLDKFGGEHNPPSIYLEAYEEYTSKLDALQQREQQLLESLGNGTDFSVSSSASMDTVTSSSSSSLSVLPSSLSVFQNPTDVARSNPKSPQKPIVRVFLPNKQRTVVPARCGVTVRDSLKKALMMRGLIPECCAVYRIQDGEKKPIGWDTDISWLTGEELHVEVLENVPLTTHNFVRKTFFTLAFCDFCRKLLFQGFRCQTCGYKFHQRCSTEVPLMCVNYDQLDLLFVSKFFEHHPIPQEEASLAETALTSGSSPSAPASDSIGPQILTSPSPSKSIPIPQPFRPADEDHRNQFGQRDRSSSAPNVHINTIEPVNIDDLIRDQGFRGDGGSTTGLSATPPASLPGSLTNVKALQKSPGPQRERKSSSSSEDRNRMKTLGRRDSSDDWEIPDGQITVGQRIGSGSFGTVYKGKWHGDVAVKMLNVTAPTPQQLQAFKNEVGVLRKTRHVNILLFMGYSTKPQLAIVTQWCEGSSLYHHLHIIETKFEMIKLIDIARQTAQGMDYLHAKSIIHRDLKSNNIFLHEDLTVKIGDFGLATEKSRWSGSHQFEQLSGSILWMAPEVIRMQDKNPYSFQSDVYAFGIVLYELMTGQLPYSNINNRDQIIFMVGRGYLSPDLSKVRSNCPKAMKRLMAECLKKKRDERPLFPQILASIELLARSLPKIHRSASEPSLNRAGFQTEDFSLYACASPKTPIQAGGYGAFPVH

For orientation: IC50 means the midpoint of a concentration-inhibition curve. Higher therefore signals lower potency. As a reminder, the GI50 is the concentration giving 50% growth inhibition. Read a low GI50 as greater sensitivity of the cells. For `O=C(Nc1cc(C(F)(F)F)ccc1F)Nc1ccc(Oc2ccnc3[nH]c(=O)[nH]c23)c2ncccc12` [AA-001, 4-[(5-Amino-quinolinyl-8-oxy)carbonylamino-(2-fluoro-5-trifloromethylphenyl)]-pyridin-5,6-imidazolone], the IC50 on B-RAF is not above 1000 nM. Moreover, the GI50 in the test on WM266.4 melanoma cells was not above 10 µM.
In the case of `O=C(Nc1ccc(Cl)c(C(F)(F)F)c1)Nc1ccc(Oc2ccnc3[nH]c(=O)[nH]c23)c2ncccc12` [AA-002, 4-[(8-Oxy-quinolinyl-5-amino)carbonylamino-(3-trifluoromethyl-4-chloro-phenyl)]-pyridin-5,6-imidazolone], at B-RAF, the IC50 was not above 1000 nM.
In the case of `CC(C)(C)c1cc(NC(=O)Nc2ccc(Oc3ccnc4[nH]c(=O)[nH]c34)c3cccnc23)n(-c2ccccc2)n1` [AA-005, 4-[(5-Oxy-quinolinyl-8-amino)carbonyl-amino-(1-N-phenyl-3-t-butyl-pyrazol-5-yl)]-pyridin-5,6-imidazolone], the half-maximal inhibitory concentration (IC50) was not above 10 µM with pERK and not above 1000 nM at B-RAF. In addition, in the test on WM266.4 melanoma cells, the GI50 was not above 10 µM.
In turn, `CC(C)(C)c1cc(NC(=O)Nc2ccc(Oc3ccnc4[nH]c(=O)[nH]c34)c3ncccc23)n(-c2ccccc2)n1` [AA-006, 4-[(8-Oxy-quinolinyl-5-amino)carbonyl-amino-(1-N-phenyl-3-t-butyl-pyrazol-5-yl)]-pyridin-5,6-imidazolone] had an IC50 in the test with pERK not above 10 µM. Further, the GI50 in the test with WM266.4 melanoma cells is not above 10 µM.
As for `O=C(Nc1ccc(Cl)c(C(F)(F)F)c1)Nc1ccc(Oc2ccnc3[nH]c(=O)[nH]c23)c2cccnc12` [AA-007, 4-[(5-Oxy-quinolinyl-8-amino)carbonylamino-(3-trifluoromethyl-4-chloro-phenyl)]-pyridin-5,6-imidazolone], the IC50 in the test on pERK is not above 10 µM; against B-RAF, not above 1000 nM. The same compound showed a GI50 with WM266.4 melanoma cells not above 10 µM.
Regarding `O=C(Nc1cccc(C(F)(F)F)c1)Nc1ccc(Oc2ccnc3[nH]c(=O)[nH]c23)c2cccnc12` [AA-008, 4-[(5-Oxy-quinolinyl-8-amino)carbonylamino-(3-trifluoromethyl-phenyl)]-pyridin-5,6-imidazolone], the values for the half-inhibitory concentration (IC50) with pERK and against B-RAF were not above 10 µM and not above 1000 nM, respectively. The GI50 with WM266.4 melanoma cells was not above 10 µM.
For the compound `Cc1ccc(-n2nc(C(C)(C)C)cc2NC(=O)Nc2ccc(Oc3ccnc4[nH]c(=O)n(C)c34)c3cccnc23)cc1` [AA-011, 4-[(5-Oxy-quinolinyl-8-amino)carbonyl-amino-(1-N-p-tolyl-3-t-butyl-pyrazol-5-yl)]-pyridin-5-N-methyl,6-imidazolone], the IC50 in the test with pERK is not above 10 µM. In the test with WM266.4 melanoma cells, this compound had a GI50 not above 10 µM.
As for `Cn1c(=O)[nH]c2nccc(Oc3ccc(NC(=O)Nc4cc(C(C)(C)C)nn4-c4ccccc4)c4ncccc34)c21` [AA-012, 4-[(5-Oxy-quinolinyl-8-amino)carbonyl-amino-(1-N-phenyl-3-t-butyl-pyrazol-5-yl)]-pyridin-5-N-methyl,6-imidazolone], on B-RAF, the IC50 is ≤ 1000 nM and 1000 nM.
On to `Cn1c(=O)[nH]c2c(Oc3ccc(NC(=O)Nc4cc(C(F)(F)F)ccc4F)c4ncccc34)ccnc21` [AA-013, 5-[(8-Amino-quinolinyl-5-oxy)carbonylamino-3-(2-fluoro-5-trifluoromethyl-phenyl)]-Pyridin-[2,3]-N-methylimidazol-2-one], for which the IC50 is not above 10 µM in the test with pERK and not above 1000 nM on B-RAF.
In the test with pERK, `Cc1ccc(-n2nc(C(C)(C)C)cc2NC(=O)Nc2ccc(Oc3ccnc4c3[nH]c(=O)n4C)c3cccnc23)cc1` [AA-015] showed an IC50 not above 10 µM. Besides, in the test with WM266.4 melanoma cells, the 50% growth inhibitory concentration (GI50) is not above 10 µM.
`Cn1c(=O)[nH]c2c(Oc3ccc(NC(=O)Nc4cc(C(C)(C)C)nn4-c4ccccc4)c4ncccc34)ccnc21` [AA-016] gave an IC50 with pERK not above 10 µM. This compound yielded a GI50 in the test with WM266.4 melanoma cells not above 10 µM.
Compound `Cc1ccc(-n2nc(C(C)(C)C)cc2NC(=O)Nc2ccc(Oc3ccnc4[nH]c(=O)c(C)nc34)c3cccnc23)cc1` [BB-002, 5-[(8-Amino-quinolinyl-5-oxy)carbonylamino-5-(1-N-p-tolyl-3-t-butyl-imidazolyl)]-pyridin-[2,3]-3-methylpyrazin-2-one] gave a half-inhibitory concentration (IC50) in the test on pERK not above 10 µM. In the test on WM266.4 melanoma cells, the GI50 was not above 10 µM.
With `CC(C)(C)c1cc(NC(=O)Nc2ccc(Oc3ccnc4ncc(=O)[nH]c34)c3cccnc23)n(-c2ccccc2)n1` [BB-010], in the test on pERK, the IC50 is not above 10 µM. In the test on WM266.4 melanoma cells, the GI50 was not above 10 µM.
